These results are taken from patent publication US20240173293A1 (Sanofi, priority 2021, published 2024).

Where two headings read alike, the source gives them in different places.

Data set [1] in a line: Amcenestrant PK parameters at steady state in patients. Particulars: for AUC(0-t) / Cmax / Tmax / concentration at 0 h: human, plasma, oral; for Tmax: read-out: Tmax (median); for concentration at 0 h: read-out: Ctrough (arithmetic mean). It counts as in vivo, human.
For data set [2] the following is noted: cited from earlier work.
The conditions of data set [3]: pooled analysis, 1666 patients treated with palbociclib; cited from earlier work.
The nature of data set [4]: Published palbociclib exposure data (A5481001, A5481003, A5481008, Ibrance label). In kind it is in vivo. Particulars: human, plasma; A5481001, A5481003, A5481008, N=57; read-out: AUC0-24 h, reference: geometric mean of individual studies weighed by number of subjects (converted).
The conditions of data set [5]: cited from earlier work. The source holds these as a separate data set.
Setting [6] is: amcenestrant 200 mg with palbociclib, steady state Day 21, N=8.
[7] abbreviates: amcenestrant 400 mg monotherapy, steady state, N=13.
[8] abbreviates: amcenestrant 400 mg with palbociclib, steady state Day 21, N=5.

As a reminder, the Cmax is the maximum level reached in the sampled fluid or tissue. The Tmax is the time from dosing to the highest level.

As to `O=C(O)c1ccc2c(c1)CCCC(c1ccc(Cl)cc1Cl)=C2c1ccc(O[C@H]2CCN(CCCF)C2)cc1` [Amcenestrant, 6-(2,4-dichlorophenyl)-5-[4-[(3S)-1-(3-fluoropropyl)pyrrolidin-3-yl]oxyphenyl]-8,9-dihydro-7H-benzo[7]annulene-2-carboxylic acid], the “CLss/F (arithmetic mean)” value in data set [1] (setting [6]) was 10.7 L/h; in data set [1] (amcenestrant 200 mg with palbociclib, steady state Day 21, N=8, listed as amcenestrant), 10.7 ± 3.38 L/h; in data set [1] (setting [7]), 10.6 L/h; in data set [1] (amcenestrant 400 mg monotherapy, steady state, N=13, listed as amcenestrant), 10.6 ± 4.35 L/h; in data set [1] (setting [8]), 13.5 L/h; in data set [1] (amcenestrant 400 mg with palbociclib, steady state Day 21, N=5, listed as amcenestrant), 13.5 ± 5.36 L/h. The “Ctrough [geometric mean]” value is “[215] ng/mL” in data set [1] (setting [6]), “[466] ng/mL” in data set [1] (setting [7]) and “[248] ng/mL” in data set [1] (setting [8]). Moreover, in data set [1] (amcenestrant 400 mg with palbociclib, Day 21), the “systemic clearance higher than after amcenestrant 400 mg QD single agent” value came out at 28%. Also, the AUC(0-t) was 20600 ng·h/mL in data set [1] (female, 200 mg, amcenestrant 200 mg with palbociclib, steady state Day 21, N=8, read-out: AUC0-24h (arithmetic mean) (converted)); 33100 ng·h/mL in data set [1] (female, 400 mg, amcenestrant 400 mg with palbociclib, steady state Day 21, N=5, read-out: AUC0-24h (arithmetic mean) (converted)); 31400 ng·h/mL in data set [1] (female, 400 mg, amcenestrant 400 mg with palbociclib, steady state Day 21, N=5, read-out: AUC0-24h [geometric mean]); 19500 ng·h/mL in data set [1] (200 mg, amcenestrant 200 mg with palbociclib, steady state Day 21, N=8, read-out: AUC0-24h [geometric mean]); 43200 ng·h/mL in data set [1] (400 mg, amcenestrant 400 mg monotherapy, steady state, N=13, read-out: AUC0-24h (arithmetic mean) (converted)); 40400 ng·h/mL in data set [1] (400 mg, amcenestrant 400 mg monotherapy, steady state, N=13, read-out: AUC0-24h [geometric mean]). Further, the peak concentration (Cmax) in data set [1] (female, 200 mg, amcenestrant 200 mg with palbociclib, steady state Day 21, N=8, read-out: Cmax (arithmetic mean)) was found to be 2060 ng/mL; in data set [1] (female, 400 mg, amcenestrant 400 mg with palbociclib, steady state Day 21, N=5, read-out: Cmax (arithmetic mean)), 4350 ng/mL; in data set [1] (female, 400 mg, amcenestrant 400 mg with palbociclib, steady state Day 21, N=5, read-out: Cmax [geometric mean]), 3450 ng/mL; in data set [1] (200 mg, amcenestrant 200 mg with palbociclib, steady state Day 21, N=8, read-out: Cmax [geometric mean]), 1940 ng/mL; in data set [1] (400 mg, amcenestrant 400 mg monotherapy, steady state, N=13, read-out: Cmax (arithmetic mean)), 4380 ng/mL; in data set [1] (400 mg, amcenestrant 400 mg monotherapy, steady state, N=13, read-out: Cmax [geometric mean]) it was 4220 ng/mL. Besides, the Tmax in data set [1] (female, 200 mg) stood at 4.88 h; in data set [1] (female, 400 mg), 4 h; in data set [1] (400 mg), 3 h. Also, the concentration at 0 h was 226 ng/mL in data set [1] (female, amcenestrant 200 mg with palbociclib, steady state Day 21, N=8); 280 ng/mL in data set [1] (female, amcenestrant 400 mg with palbociclib, steady state Day 21, N=5); 630 ng/mL in data set [1] (400 mg, amcenestrant 400 mg monotherapy, steady state, N=13).
For the molecule `CC(=O)c1c(C)c2cnc(Nc3ccc(N4CCNCC4)cn3)nc2n(C2CCCC2)c1=O` [Palbociclib, 6-acetyl-8-cyclopentyl-5-methyl-2-{[5-(piperazin-1-yl)pyridin-2-yl]amino}pyrido[2,3-d]pyrimidin-7(8H)-one], the solubility result in data set [2] (Above pH 4) was “reduces significantly”; in data set [2] (At or below pH 4) it was “high-solubility compound”. Further, in data set [3], the “neutrophil count decrease, any grade” value is 95.2%. For the same molecule, the AUC(0-t) in data set [4] is 1970 ng·h/mL. In addition, the “decrease of exposure when combined with a moderate CYP3A inducer (modafinil)” value in data set [5] (Ibrance U.S. label) is reported as 32%. Also, in data set [5] (study A5481001, palbociclib monotherapy, steady state, N=4), the “Cmax, arithmetic mean (CV %)” value is 97.4 (41%) ng/mL. Moreover, the “Cmax, geometric mean (CV %)” value is given as 116 (28%) ng/mL in data set [5] (study A5481003, palbociclib monotherapy, steady state, N=12) and 110 (35%) ng/mL in data set [5] (study A5481008, palbociclib with letrozole, steady state, N=41).
